Data taken from patent publication US5013841A, “Oxo quinoline derivatives” (Dainippon Pharmaceutical Co., Ltd., priority 1987, dated 1991).
In brackets after ≈: the same amount, converted by molar mass. Where two headings read alike, the source gives them in different places.

Assays:
[1] = test system: E. coli NIHJ JC-2; test: In vitro antibacterial activity (twofold agar-dilution method); format: cell-based; conditions: Escherichia coli, NIHJJC2; E. coli NIHJ JC-2; agar dilution, 20 h, 37° C., calculated for free base; read-out: minimum inhibitory concentration (MIC)
Method: (§1) The figures in the table show minimum inhibitory concentrations (MIC) (μg/ml), calculated for free base. The minimum inhibitory concentration was determined by the twofold agar-dilution method, which was recommended by Japan Society of Chemotherapy (Chemotherapy, 29(1), 76(1981)), using Muller-Hinton agar. One loopful of an overnight culture of test organisms in Mueller-Hinton broth was inoculated onto 10-ml drug-containing agar layers in petri dishes. Bacterial inocula contained approximately 10^6 colonyl-formingunits. Bacterial growth was observed after 20-hour incubation at 37° C. The MIC was defined as the lowest drug concentration which prevented visible bacterial growth.

[2] = test system: E. coli P-5101; test: as above; format: cell-based; conditions: Escherichia coli, P5101; E. coli P-5101; agar dilution, 20 h, 37° C., calculated for free base; read-out: minimum inhibitory concentration (MIC)
Method: as §1

[3] = test system: Flavobacterium sp P-7201; test: as above; format: cell-based; conditions: read-out: minimum inhibitory concentration (MIC)
Method: as §1

[4] = test system: P. Aeruginosa 12; test: as above; format: cell-based; conditions: Pseudomonas aeruginosa, 20 h, read-out: minimum inhibitory concentration (MIC)
Method: as §1

[5] = test system: S. aureus 209 JC-1; test: as above; format: cell-based; conditions: Staphylococcus aureus, read-out: minimum inhibitory concentration (MIC)
Method: as §1

[6] = test system: S. aureus No. 80; test: as above; format: cell-based; conditions: Staphylococcus aureus; S. aureus No. 80; agar dilution, 20 h, 37° C., calculated for free base; read-out: minimum inhibitory concentration (MIC)
Method: as §1

[7] = test system: S. aureus Terajima; test: as above; format: cell-based; conditions: Staphylococcus aureus, 20 h, read-out: minimum inhibitory concentration (MIC)
Method: as §1

[8] = test system: S. epidermidis No. 8; test: as above; format: cell-based; conditions: Staphylococcus epidermidis, read-out: minimum inhibitory concentration (MIC)
Method: as §1

[9] = test system: S. marcescens IFO 3736; test: as above; format: cell-based; conditions: Serratia marcescens, IFO3736; S. marcescens IFO 3736; agar dilution, 20 h, 37° C., calculated for free base; read-out: minimum inhibitory concentration (MIC)
Method: as §1

[10] = test system: S. pyogenes Cook; test: as above; format: cell-based; conditions: Streptococcus pyogenes, 20 h, 37° C., calculated for free base, read-out: minimum inhibitory concentration (MIC)
Method: as §1

[11] = test system: M. pneumoniae Mac; test: Antimycoplasma activity (twofold agar dilution method); format: cell-based, Mycoplasma pneumoniae; conditions: Mycoplasmoides pneumoniae, 168 h; M. pneumoniae Mac; Chanock agar, 37° C., 7 days, aerobic, calculated for free base; read-out: minimum inhibitory concentration (MIC)
Method: (§2) The figures in the table show minimum inhibitory concentrations (MIC), (μg/ml), calculated for free base.
(§3) Minimum inhibitory concentrations (MIC) were determined by the twofold agar dilution method. The media used were Chanock broth and agar PPLD broth and agar (Difco) supplemented with 20% horse serum and 10% fresh yeast extract). A 2-3 day broth culture of organisms was diluted with Chanock broth to a cell density of about 10^6 cells/ml. One loopful (about […]) of the organism dilution was spotted onto 10-ml drug containing Chanock agar in petri dishes using a multiple inoculator (Cathra International). The petri dishes were incubated at 37° C. for 7 and 2 days for Mycoplasma pneumoniae and other Mycoplasma spp. respectively. Incubation was performed anaerobically using the Gaspak anaerobic system (BBL) for M. buccale, M. fermentans, M. hominis, M. orale and M. salivarium, and aerobically for other Mycoplasma spp. The MIC was defined as the lowest compound concentration at which no growth of organism was detected.

[12] = test system: M. salivarium PG-20; test: as above; format: cell-based; conditions: 48 h, read-out: minimum inhibitory concentration (MIC)
Method: as §2, §3

[13] = test system: C. Trachomatics G/ur 1317; test: Antichlamydia activity (inclusion bodies in McCoy cells); format: cell-based; conditions: 36° C., 40-48 h, calculated for free base, read-out: minimum inhibitory concentration (MIC)
Method: (§4) Minimum inhibitory concentrations (MIC) were determined as follows. McCoy cells were freshly cultured in Eagle's minimum essential medium (EMEM) (Flow) supplemented with 4% fetal bovine serum and 0.03% L-glutamine. The cells were trypsinized and suspended in the same culture medium at a cell concentration of 1-2×10^5 cells/ml. One ml of the cell suspension was pipetted into flat-bottomed plastic tubes (14 mm in diameter) containing a cover slip (12 mm in diameter). The tubes were incubated in 5% CO2 -air at 36° C. for 20 hours. One-half ml of a chlamydial suspension (ca. 1-4×10^3 inclusion body forming units) was added into each tube, which was then centrifuged at 1500×g for 60 minutes. The tubes were incubated for 1 hour at 36° C. The medium was changed with 1 ml of EMEM supplemented with 8% fetal bovine serum, 0.03% L-blutamine, 1μg/ml cycloheximide and 0.5% glucose, and containing drugs at various concentrations. After further incubation at 36° C. for 40-48 hours, the cells on the cover glasses were stained with the Giemsa's solution. […] The MIC was defined as the lowest drug concentration where there were no inclusion bodies in all the cells on the cover slip.

[14] = test system: C. Trachomatics G/ur 1467; test: as above; format: cell-based; conditions: 36° C., 40-48 h, calculated for free base, read-out: minimum inhibitory concentration (MIC)
Method: as §4

[15] = test system: C. Trachomatics G/ur 1483; test: as above; format: cell-based; conditions: 36° C., 40-48 h, calculated for free base, read-out: minimum inhibitory concentration (MIC)
Method: as §4

[16] = test system: C. Trachomatics G/ur 931; test: as above; format: cell-based; conditions: 36° C., 40-48 h, calculated for free base, read-out: minimum inhibitory concentration (MIC)
Method: as §4

[17] = Acute oral toxicity in mice; conditions: mouse, in vivo, male mice (ddY), 7 days, Behrens-Kaerber method, read-out: median lethal dose (LD50)
Method: A suspension containing each of compounds of this invention in various concentrations was orally given to male mice (ddY) at a dose of 0.1 ml per 10 g of body weight. The number of dead mice was counted after 7 days, and the value of median lethal dose (LD50, mg/kg) was calculated in accordance with the Behrens-Kaerber method.

**Q.** Which MIC [1] does the source give for `Nc1c(F)c(N2CCNCC2)cc2c1c(=O)c(C(=O)O)cn2C1CC1` [Compound 1] here?
**A.** The MIC was 0.0063 µg/mL (≈ 0.0182 µM).

**Q.** What about the MIC [2] of the same compound?
**A.** Its MIC is 0.0063 µg/mL (≈ 0.0182 µM).

**Q.** What about the MIC ([3]; P7201, Flavobacterium sp P-7201, agar dilution, 20 h, 37° C., calculated for free base) of the same compound?
**A.** The MIC was 0.1 µg/mL (≈ 0.289 µM).

**Q.** What about the MIC ([4]; P. Aeruginosa 12, agar dilution, 37° C., calculated for free base) of the same compound?
**A.** Its MIC is 0.05 µg/mL (≈ 0.144 µM).

**Q.** What about the MIC ([5]; 209JC1, S. aureus 209 JC-1, agar dilution, 20 h, 37° C., calculated for free base) of the same compound?
**A.** The MIC was 0.025 µg/mL (≈ 0.0722 µM).

**Q.** And the MIC [6]?
**A.** The MIC was 0.05 µg/mL (≈ 0.144 µM).

**Q.** What about the MIC ([7]; S. aureus Terajima, agar dilution, 37° C., calculated for free base) of the same compound?
**A.** The MIC was 0.05 µg/mL (≈ 0.144 µM).

**Q.** And the MIC ([8]; S. epidermidis No. 8, agar dilution, 20 h, 37° C., calculated for free base)?
**A.** Its MIC is 0.025 µg/mL (≈ 0.0722 µM).

**Q.** And the MIC [9]?
**A.** The MIC was 0.1 µg/mL (≈ 0.289 µM).

**Q.** And the MIC [10]?
**A.** Its MIC is 0.2 µg/mL (≈ 0.577 µM).

**Q.** And the MIC [11]?
**A.** Its MIC is 0.1 µg/mL (≈ 0.289 µM).

**Q.** And the MIC ([12]; M. salivarium PG-20, Chanock agar, 37° C., 2 days, anaerobic, calculated for free base)?
**A.** The MIC was 1.56 µg/mL (≈ 4.5 µM).

**Q.** And the MIC [13]?
**A.** The MIC was 0.25 µg/mL (≈ 0.722 µM).

**Q.** What about the MIC [14] of the same compound?
**A.** Its MIC is 0.25 µg/mL (≈ 0.722 µM).

**Q.** What about the MIC [15] of the same compound?
**A.** Its MIC is 0.25 µg/mL (≈ 0.722 µM).

**Q.** And the MIC [16]?
**A.** The MIC was 0.25 µg/mL (≈ 0.722 µM).

**Q.** And the LD50 at 168 h [17]?
**A.** The LD50 at 168 h was > 2000 mg/kg.

**Q.** Which MIC [1] does the source give for `C[C@@H]1CN(c2cc3c(c(N)c2F)c(=O)c(C(=O)O)cn3C2CC2)C[C@H](C)N1` [Compound 2, 5-amino-1-cyclopropyl-6-fluoro-7-(cis-3,5-dimethyl-1-piperazinyl)-1,4-dihydro-4-oxoquinoline-3-carboxylic acid] here?
**A.** The MIC was 0.025 µg/mL (≈ 0.0668 µM).

**Q.** What about the MIC [2] of the same compound?
**A.** The MIC was 0.025 µg/mL (≈ 0.0668 µM).

**Q.** And the MIC ([3]; Flavobacterium, P7201, 20 h)?
**A.** The MIC was 0.1 µg/mL (≈ 0.267 µM).

**Q.** And the MIC [4]?
**A.** Its MIC is 0.39 µg/mL (≈ 1.04 µM).

**Q.** And the MIC ([5]; 209JC1, 20 h)?
**A.** The MIC was 0.1 µg/mL (≈ 0.267 µM).

**Q.** What about the MIC [6] of the same compound?
**A.** The MIC was 0.025 µg/mL (≈ 0.0668 µM).

**Q.** And the MIC [7]?
**A.** Its MIC is 0.05 µg/mL (≈ 0.134 µM).

**Q.** What about the MIC ([8]; NO.8, 20 h) of the same compound?
**A.** Its MIC is 0.1 µg/mL (≈ 0.267 µM).

**Q.** What about the MIC [9] of the same compound?
**A.** Its MIC is 0.78 µg/mL (≈ 2.08 µM).

**Q.** And the MIC [10]?
**A.** The MIC was 0.39 µg/mL (≈ 1.04 µM).

**Q.** And the MIC [11]?
**A.** The MIC was 0.1 µg/mL (≈ 0.267 µM).

**Q.** And the MIC [12]?
**A.** Its MIC is 0.39 µg/mL (≈ 1.04 µM).

**Q.** What about the MIC [13] of the same compound?
**A.** The MIC was 0.063 µg/mL (≈ 0.168 µM).

**Q.** And the MIC [14]?
**A.** The MIC was 0.063 µg/mL (≈ 0.168 µM).

**Q.** And the MIC [15]?
**A.** Its MIC is 0.063 µg/mL (≈ 0.168 µM).

**Q.** What about the MIC [16] of the same compound?
**A.** The MIC was 0.063 µg/mL (≈ 0.168 µM).

**Q.** And the LD50 at 168 h [17]?
**A.** Its LD50 at 168 h is > 2000 mg/kg.
